Measurements from PMC9305971, “Development of [^18F]AmBF3 Tetrazine for Radiolabeling of Peptides: Preclinical Evaluation and PET Imaging of [^18F]AmBF3-PEG7-Tyr^3-Octreotide in an AR42J Pancreatic Carcinoma Model” (Bioconjugate Chemistry, 2022).
Where two headings read alike, the source gives them in different places.

Key:
AR42J xenografts = assay: Ex vivo biodistribution of [18F]14 and [18F]15; format: in vivo, Rj:NMRI-Foxn1^nu/nu mice
Protocol: (§1) [^18F]14 and [^18F]15 in ≤4% ethanol–0.01 M PBS were administered intravenously (1.2 ± 0.0 and 2.0 ± 0.1 MBq, respectively, 0.2 nmol, 150 μL) to AR42J tumor-bearing Rj:NMRI-Foxn1^nu/nu mice. At predetermined time points (t = 30, 60, 120, and 240 min), animals were euthanized with CO2 asphyxiation and cervical dislocation, and then the organs were harvested, washed with water, and blotted dry, following with weighing and γ counting from which the % ID/g in tissues was determined.

[1] = Ex vivo biodistribution of [18F]14 and [18F]15; format: in vivo, Rj:NMRI-Foxn1^nu/nu mice; conditions: mouse, iv, 0.2 nmol; for tissue uptake at 1 h / tissue uptake at 2 h: i.v.; for tissue uptake at 2 h: 120 min post injection
Protocol: as §1

[2] = Enzymatic stability in 50% human plasma-0.01 M PBS; format: in vitro ADME; conditions: 50% (v/v) human plasma-0.01 M PBS, radio-HPLC
Protocol: Lipophilicity was determined with the shake-flask method as a distribution coefficient between 0.01 M PBS and octanol. Purified radiotracer [^18F]6 (10 μL, ∼200 kBq, 1.5 nmol), [^18F]14 (20 μL, ∼260 kBq, 125 pmol), or [^18F]15 (20 μL, 144 kBq, 67 pmol) in a polypropylene tube containing 1500–2000 μL of each in a 1:1 mixture (1-octanol, 0.02 M PBS, pH 7.4) was shaken mechanically (500 rpm, 10 min) and centrifuged (1000g, 5 min), and samples from each layer (400 μL, n = 4) were measured with a γ-counter. The log D7.4 was calculated as a distribution between the two layers at pH 7.4. [^18F]6 (10 MBq, 40 nmol) diluted with 0.01 M PBS at pH 7.4 (≤1% ethanol, 5300 μL) was incubated for 180 min. At selected time points (5, 30, 60, 90, 120, 150, and 180 min), a sample (100 μL) was injected to radio-HPLC. [^18F]14 and [^18F]15 (29 MBq, 10 nmol) diluted in 2000 μL of 0.01 M PBS (≤1% ethanol) were left to incubate. A sample of [^18F]14 (100 μL) after 9 hours and [^18F]15 at selected time points between 30 and 335 min were injected into HPLC (method A). [^18F]15 (0.6 MBq, 0.134 nmol, 200 μL) formulated in ≤5% EtOH-1 × PBS was added and incubated in 2000 μL of PBS-50% human plasma at 37 °C. A 100 μL sample (at 60, 120, 180, and 240 min, n = 2) was diluted with 200 μL of cold acetonitrile and centrifuged (10,000g, 5 min). […]

[3] = system: SSTR2-expressing rat pancreatic adenocarcinoma AR42J cells; assay: Cell uptake assay; format: cell-based; conditions: 120 min
Protocol: AR42J cells were grown to >90% confluence. One million cells/well were seeded overnight on 6-well plates. The growth media was removed, and the reaction media (1 mL) containing [^18F]14 (11 kBq, 10 pmol per well) or [^18F]15 (97 kBq, 40 pmol per well) was added. Additionally, cells were coincubated with 2.4 nmol per well of nonmodified octreotide for blocking of radiotracer uptake. Radioactivity in the free, membrane-bound, and internalized fractions was determined at designated time points (15, 30, 60, and 120 min) by treating the cells in a sequence of (1) ice-cold 0.01 M PBS, (2) glycine buffer, and (3) 1 M NaOH, respectively. The fractions were collected and measured with a γ-counter. The detailed protocol is given in the Supporting Information. […]
where Acoct=radioactivity concentration of octanol and AcPBS=radioactivity concentration of PBS. The datapoints were presented as mean ± standard deviation.
AR42J cell-uptake assay and mouse tumor model. Rat pancreatic tumor cell line AR42J that expresses SSTR2, was cultured at 37 °C in 95% relative humidity incubator containing 5% CO2. Cells grown to >90% confluence were used for either in vitro or in vivo experiments.
One million cells/well were seeded overnight on 6-well plates. The growth media was removed and the medium (1 mL/well) containing [18F]14 (11 kBq, 10 pmol per well) or [18F]15 (97 kBq, 40 pmol per well) was added. For studying the specificity of the cell -uptake, a set of cells were co-incubated in the presence of 2.4 nmol per well of non -modified octreotide representative of blocking conditions (total volume ~1 mL). For determining the amount of the radiotracer in the free fraction, at the designated time-points (15, 30, 60 and 120 min) the incubated media were removed, collected to a 5 mL scintillation tube, cells were washed with 1 mL of cold 0.01 M PBS (1×PBS) and again the supernatant collected into the same scintillation tube. Membrane-bound fraction; ice-cold glycine buffer (1 mL) was added on the cells, incubated for 5 minutes on ice, supernatant removed (procedure repeated once more) and the cells washed with ice -cold 1×PBS, and all washing solutions were collected to the same scintillation tube. Internalized fraction; 1 M NaOH (1 mL) was added on the cells and left incubating at an ambient temperature for 10 min. The supernatant was removed, the wells were washed 2 × 1 mL of cold 0.01 M PBS, and the supernatants collected to the same microtube. The collected samples were measured with a gamma counter for measuring the counts per minute (CPM) of each fraction (n = 3). The internalization is presented in percent (%) normalized to the total radioactivity in all three

C[C@@H](O)[C@@H]1NC(=O)[C@H](CCCCN)NC(=O)[C@@H](Cc2c[nH]c3ccccc23)NC(=O)[C@H](Cc2ccc(O)cc2)NC(=O)[C@@H](NC(=O)[C@@H](Cc2ccccc2)NC(=O)CCOCCOCCOCCOCCON=Cc2ccc(CNC(=O)OC3CCCc4cnnc(-c5ccc(CC(=O)NCC[N+](C)(C)C[B-](F)(F)F)cc5)c4CC3)cc2)CSSC[C@@H](C(=O)N[C@H](CO)[C@@H](C)O)NC1=O (stereo partly shown) [[^18F]14]
urine (AR42J xenografts; 60 min post injection, i.v., baseline): 84.9 ± 58.6 % ID/g
defluorination in vivo (in words) (AR42J xenografts; judged from bone uptake): A minor degree of defluorination could not be ruled out
tissue to tissue ratio at 1 h ([1]; Rj:NMRI-Foxn1^nu/nu, tumor (AR42J xenograft) / blood, total radioactivity, 60 min post injection, baseline, read-out: T/blood ratio): 0.3
tissue uptake at 1 h ([1]; 60 min post injection, baseline, read-out: blood): 10.2 ± 2.3 %ID/g
tissue uptake at 1 h ([1]; 60 min post injection, baseline, read-out: brain): 0.3 ± 0.1 %ID/g
tissue uptake at 1 h ([1]; 60 min post injection, baseline, read-out: gallbladder): 17.8 ± 5.2 %ID/g
tissue uptake at 1 h ([1]; 60 min post injection, baseline, read-out: heart): 2.4 ± 0.7 %ID/g
tissue uptake at 1 h ([1]; 60 min post injection, baseline, read-out: kidney): 14.3 ± 4.5 %ID/g
tissue uptake at 1 h ([1]; 60 min post injection, baseline, read-out: liver): 30 ± 9.4 %ID/g
tissue uptake at 1 h ([1]; 60 min post injection, baseline, read-out: lung): 6.2 ± 2.4 %ID/g
tissue uptake at 1 h ([1]; 60 min post injection, baseline, read-out: muscle): 0.6 ± 0.2 %ID/g
tissue uptake at 1 h ([1]; 60 min post injection, baseline, read-out: pancreas): 1.1 ± 0.2 %ID/g
tissue uptake at 1 h ([1]; 60 min post injection, baseline, read-out: skin): 2.1 ± 0.9 %ID/g
tissue uptake at 1 h ([1]; 60 min post injection, baseline, read-out: spleen): 1.2 ± 0.5 %ID/g
tissue uptake at 1 h ([1]; 60 min post injection, baseline, read-out: urine): ~85 %ID/g
tissue uptake at 1 h ([1]; 60 min post injection, blocked with octreotide, read-out: blood): 7.4 ± 1.5 %ID/g
tissue uptake at 1 h ([1]; 60 min post injection, blocked with octreotide, read-out: brain): 0.3 ± 0.1 %ID/g
tissue uptake at 1 h ([1]; 60 min post injection, blocked with octreotide, read-out: gallbladder): 10.7 ± 6.3 %ID/g
tissue uptake at 1 h ([1]; 60 min post injection, blocked with octreotide, read-out: heart): 1.9 ± 0.4 %ID/g
tissue uptake at 1 h ([1]; 60 min post injection, blocked with octreotide, read-out: kidney): 11.4 ± 3.7 %ID/g
tissue uptake at 1 h ([1]; 60 min post injection, blocked with octreotide, read-out: liver): 26.2 ± 15.8 %ID/g
tissue uptake at 1 h ([1]; 60 min post injection, blocked with octreotide, read-out: lung): 5.5 ± 2.7 %ID/g
tissue uptake at 1 h ([1]; 60 min post injection, blocked with octreotide, read-out: muscle): 0.5 ± 0.1 %ID/g
tissue uptake at 1 h ([1]; 60 min post injection, blocked with octreotide, read-out: pancreas): 0.8 ± 0.5 %ID/g
tissue uptake at 1 h ([1]; 60 min post injection, blocked with octreotide, read-out: skin): 1.6 ± 0.4 %ID/g
tissue uptake at 1 h ([1]; 60 min post injection, blocked with octreotide, read-out: spleen): 0.9 ± 0.1 %ID/g
tissue uptake at 1 h ([1]; 60 min post injection, blocked with octreotide, read-out: urine): 41.9 ± 15.7 %ID/g
tissue uptake at 1 h ([1]; large intestine with contents, 60 min post injection, baseline, read-out: L. I. (+cont.), large intestine): 1.1 ± 1.1 %ID/g
tissue uptake at 1 h ([1]; large intestine with contents, 60 min post injection, blocked with octreotide, read-out: L. I. (+cont.), large intestine): 0.7 ± 0.3 %ID/g
tissue uptake at 1 h ([1]; occipital bone, 60 min post injection, blocked with octreotide, read-out: bone, occipital): 1.1 ± 0.5 %ID/g
tissue uptake at 2 h ([1]; occipital bone, read-out: bone, occipital): 1.7 ± 0.1 %ID/g
tissue uptake at 1 h ([1]; small intestine with contents, 60 min post injection, baseline, read-out: S. I. (+cont.), small intestines): 2.6 ± 0.8 %ID/g
tissue uptake at 1 h ([1]; small intestine with contents, 60 min post injection, blocked with octreotide, read-out: S. I. (+cont.), small intestines): 1.9 ± 0.4 %ID/g
tissue uptake at 1 h ([1]; stomach with contents, 60 min post injection, baseline, read-out: stomach (+cont.)): 0.6 ± 0.2 %ID/g
tissue uptake at 1 h ([1]; stomach with contents, 60 min post injection, blocked with octreotide, read-out: stomach (+cont.)): 0.6 ± 0.2 %ID/g
tissue uptake at 1 h ([1]; tibia bone, 60 min post injection, baseline, read-out: bone, tibia): 1.3 ± 0.6 %ID/g
tissue uptake at 1 h ([1]; tibia bone, 60 min post injection, blocked with octreotide, read-out: bone, tibia): 1 ± 0.6 %ID/g
tissue uptake at 2 h ([1]; tibia bone, read-out: bone, tibia): 2.9 ± 1.4 %ID/g
tissue uptake at 1 h ([1]; tumor, AR42J xenograft, 60 min post injection, baseline, read-out: tumor uptake): 3.1 ± 0.7 %ID/g
tissue uptake at 1 h ([1]; tumor, AR42J xenograft, 60 min post injection, blocked with octreotide, read-out: tumor uptake): 2.2 ± 0.6 %ID/g
enzymatic stability (in words) [2]: a polar radiometabolite was detected
cell uptake, baseline ([3]; n = 3, % internalized): 1.0 ± 0.2%
cell uptake, blocking ([3]; n = 3, coincubation with excess octreotide): 0.5 ± 0.1%
